# Experimental data reported in US20220313698A1, “MODULATORS OF CYSTIC FIBROSIS TRANSMEMBRANE CONDUCTANCE REGULATOR” (Vertex Pharmaceuticals Incorporated, priority 2019, published 2022).
# Molecular target: CFTR-mediated chloride transport (Homo sapiens, UniProt P13569)
# Assay: Corrector Assay A - membrane potential dye assay (enteroid cells)
# Conditions: for Corrector Assay A % activity: % of chloride transport of triple combination control (1 μM (14S)-dispiro macrocycle + 3 μM tezacaftor + 300 nM ivacaftor); for EC50: read-out: Corrector Assay A EC50, human intestinal enteroid cells, 18-24 h incubation, acute 10 μM forskolin + 300 nM ivacaftor
Corrector Assay A % activity,EC50,Structure (SMILES)
++ (++ is 30-60%),< 1000 nM,"CC(C)(C)c1ccc2c(n1)N1C[C@@H](CCC(C(C)(C)C)Nc3cccc(n3)S(=O)(=O)NC2=O)CC1(C)C (single isomer, unassigned) [Compound 245]"
++ (++ is 30-60%),> 3000 nM,"CC(C)(C)c1ccc2c(n1)N1C[C@@H](CCC(C3CCNCC3)Nc3cccc(n3)S(=O)(=O)NC2=O)CC1(C)C (single isomer, unassigned) [Compound 248]"
++ (++ is 30-60%),> 3000 nM,"CC(C)(C)c1ccc2c(n1)N1C[C@@H](CCC(C3CCNCC3)Nc3cccc(n3)S(=O)(=O)NC2=O)CC1(C)C (single isomer, unassigned) [Compound 249]"
++ (++ is 30-60%),< 1000 nM,"CC(C)(C)c1ccc2c(n1)N1CC(CCCNc3cc(O)cc(n3)S(=O)(=O)NC2=O)CC1(C)C (single isomer, unassigned) [Compound 250, 8-tert-butyl-21-hydroxy-12,12-dimethyl-2λ^6-thia-3,9,11,18,23-pentaazatetracyclo[17.3.1.111,14.05,10]tetracosa-1(23),5,7,9,19,21-hexaene-2,2,4-trione]"
+ (+ is <30%),,"CC(C)(C)c1ccc2c(n1)N1CC(CCCNc3cc(O)cc(n3)S(=O)(=O)NC2=O)CC1(C)C (single isomer, unassigned) [Compound 251, 8-tert-butyl-21-hydroxy-12,12-dimethyl-2λ^6-thia-3,9,11,18,23-pentaazatetracyclo[17.3.1.111,14.05,10]tetracosa-1(23),5,7,9,19,21-hexaene-2,2,4-trione]"
++ (++ is 30-60%),< 1000 nM,"CC(C)(C)c1ccc2c(n1)N1CC(CCCNc3cncc(n3)S(=O)(=O)NC2=O)CC1(C)C (single isomer, unassigned) [Compound 252, 8-tert-butyl-12,12-dimethyl-2λ^6-thia-3,9,11,18,21,23-hexaazatetracyclo[17.3.1.111,14.05,10]tetracosa-1(22),5,7,9,19(23),20-hexaene-2,2,4-trione]"
+ (+ is <30%),> 3000 nM,"CC(C)(C)c1ccc2c(n1)N1CC(CCCNc3cncc(n3)S(=O)(=O)NC2=O)CC1(C)C (single isomer, unassigned) [Compound 253, 8-tert-Butyl-12,12-dimethyl-2λ^6-thia-3,9,11,18,21,23-hexaazatetracyclo[17.3.1.111,14.05,10]tetracosa-1(22),5,7,9,19(23),20-hexaene-2,2,4-trione]"
+ (+ is <30%),< 1000 nM,"CC(C)(C)c1ccc2c(n1)N1C[C@@H](CCC(C3CCN(C(=O)OCc4ccccc4)CC3)Nc3cccc(n3)S(=O)(=O)NC2=O)CC1(C)C (single isomer, unassigned) [Compound 254]"
+++ (+++ is >60%),< 1000 nM,"CC(C)(C)c1ccc2c(n1)N1C[C@@H](CCC(C3CCN(C(=O)OCc4ccccc4)CC3)Nc3cccc(n3)S(=O)(=O)NC2=O)CC1(C)C (single isomer, unassigned) [Compound 255]"
++ (++ is 30-60%),< 1000 nM,"CC(C)(C)c1ccc2c(n1)N1CC(CCCOc3cccc(c3)S(=O)(=O)NC2=O)CC1(C)C (single isomer, unassigned) [Compound 256, 8-tert-butyl-12,12-dimethyl-18-oxa-2λ^6-thia-3,9,11-triazatetracyclo[17.3.1.111,14.05,10]tetracosa-1(22),5,7,9,19(23),20-hexaene-2,2,4-trione]"
+ (+ is <30%),,"CC(C)(C)c1ccc2c(n1)N1CC(CCCOc3cccc(c3)S(=O)(=O)NC2=O)CC1(C)C (single isomer, unassigned) [Compound 257, 8-tert-Butyl-12,12-dimethyl-18-oxa-2λ^6-thia-3,9,11-triazatetracyclo[17.3.1.111,14.05,10]tetracosa-1(22),5,7,9,19(23),20-hexaene-2,2,4-trione]"
+ (+ is <30%),,"CC(C)(C)c1ccc2c(n1)N1CC(CC1(C)C)OCCNc1cccc(n1)S(=O)(=O)NC2=O (single isomer, unassigned) [Compound 258, 8-tert-butyl-12,12-dimethyl-15-oxa-2λ^6-thia-3,9,11,18,23-pentaazatetracyclo[17.3.1.111,14.05,10]tetracosa-1(22),5(10),6,8,19(23),20-hexaene-2,2,4-trione]"
++ (++ is 30-60%),< 1000 nM,"CC(C)(C)c1ccc2c(n1)N1CC(CC1(C)C)OCCNc1cccc(n1)S(=O)(=O)NC2=O (single isomer, unassigned) [Compound 259, 8-tert-Butyl-12,12-dimethyl-15-oxa-2λ^6-thia-3,9,11,18,23-pentaazatetracyclo[17.3.1.111,14.05,10]tetracosa-1(22),5(10),6,8,19(23),20-hexaene-2,2,4-trione]"
+ (+ is <30%),< 1000 nM,"CN1c2cccc(n2)S(=O)(=O)NC(=O)c2ccc(C(C)(C)C)nc2N2C[C@@H](CCC1c1ccccc1)CC2(C)C (single isomer, unassigned) [Compound 261]"
+++ (+++ is >60%),< 1000 nM,"CC1(C)CCCc2cc3c(nc21)N1C[C@@H](CCC(c2ccccn2)Nc2cccc(n2)S(=O)(=O)NC3=O)CC1(C)C (single isomer, unassigned) [Compound 263]"
++ (++ is 30-60%),< 1000 nM,"CC1(C)CCCc2cc3c(nc21)N1C[C@@H](CCC(c2ccccn2)Nc2cccc(n2)S(=O)(=O)NC3=O)CC1(C)C (single isomer, unassigned) [Compound 264]"
+ (+ is <30%),,"CC(C)(C)c1ccc2c(n1)N1CC(CCN(c3ccccc3)C(=O)c3cccc(c3)S(=O)(=O)NC2=O)CC1(C)C (single isomer, unassigned) [Compound 266, 8-tert-butyl-12,12-dimethyl-17-phenyl-2λ^6-thia-3,9,11,17-tetraazatetracyclo[17.3.1.111,14.05,10]tetracosa-1(22),5,7,9,19(23),20-hexaene-2,2,4,18-tetrone]"

# The next lines start with the compound.
Structure (SMILES),Corrector Assay A % activity,EC50
"CC(C)(C)OC(=O)N1CCC2(CC1)CC(NC(=O)C1CC[C@@H]3CN(c4nc(C(C)(C)C)ccc4C(=O)NS(=O)(=O)c4cccc(n4)N1)C(C)(C)C3)C2 (single isomer, unassigned) [Compound 226]",+++ (+++ is >60%),< 1000 nM
"CC(=O)N1CCC([C@@H]2CC[C@@H]3CN(c4nc(C(C)(C)C)ccc4C(=O)NS(=O)(=O)c4cccc(n4)N2)C(C)(C)C3)CC1 (single isomer, unassigned) [Compound 229]",++ (++ is 30-60%),< 1000 nM
"CC(C)(C)c1ccc2c(n1)N1C[C@@H](CCC(C(=O)O)Nc3cccc(n3)S(=O)(=O)NC2=O)CC1(C)C (single isomer, unassigned) [Compound 230]",+++ (+++ is >60%),> 3000 nM
"CC(C)(C)c1ccc2c(n1)N1C[C@@H](CCC(C(=O)O)Nc3cccc(n3)S(=O)(=O)NC2=O)CC1(C)C (single isomer, unassigned) [Compound 231]",+ (+ is <30%),> 3000 nM
"CC(C)(C)c1ccc2c(n1)N1C[C@@H](CCC(c3ccncc3)Nc3cccc(n3)S(=O)(=O)NC2=O)CC1(C)C (single isomer, unassigned) [Compound 232]",+++ (+++ is >60%),< 1000 nM
"CC(C)(C)c1ccc2c(n1)N1C[C@@H](CCC(c3ccncc3)Nc3cccc(n3)S(=O)(=O)NC2=O)CC1(C)C (single isomer, unassigned) [Compound 233]",++ (++ is 30-60%),< 1000 nM
"CC(C)(C)c1ccc2c(n1)N1C[C@@H](CC[C@@H](C3CCCCC3)Nc3cccc(n3)S(=O)(=O)NC2=O)CC1(C)C (single isomer, unassigned) [Compound 234]",++ (++ is 30-60%),< 1000 nM
"CC(C)(C)c1ccc2c(n1)N1C[C@@H](CC[C@@H](C3CCCCC3)Nc3cccc(n3)S(=O)(=O)NC2=O)CC1(C)C (single isomer, unassigned) [Compound 235]",++ (++ is 30-60%),< 1000 nM
"CN(C)CC(=O)N1CCC([C@@H]2CC[C@@H]3CN(c4nc(C(C)(C)C)ccc4C(=O)NS(=O)(=O)c4cccc(n4)N2)C(C)(C)C3)CC1 (single isomer, unassigned) [Compound 237]",++ (++ is 30-60%),1000 to 3000 nM
"CC(C)(C)c1ccc2c(n1)N1C[C@@H](CC[C@@H](C3CCN(CCC(F)(F)F)CC3)Nc3cccc(n3)S(=O)(=O)NC2=O)CC1(C)C (single isomer, unassigned) [Compound 239]",+ (+ is <30%),> 3000 nM
"CN1CCC(C2CC[C@@H]3CN(c4nc(C(C)(C)C)ccc4C(=O)NS(=O)(=O)c4cccc(n4)N2)C(C)(C)C3)CC1 (single isomer, unassigned) [Compound 240]",+++ (+++ is >60%),1000 to 3000 nM
"CN1CCC(C2CC[C@@H]3CN(c4nc(C(C)(C)C)ccc4C(=O)NS(=O)(=O)c4cccc(n4)N2)C(C)(C)C3)CC1 (single isomer, unassigned) [Compound 241]",++ (++ is 30-60%),< 1000 nM
"Cc1cccc(C)c1[C@H]1CC[C@@H]2CN(c3nc(C(C)(C)C)ccc3C(=O)NS(=O)(=O)c3cccc(n3)N1)C(C)(C)C2 (single isomer, unassigned) [Compound 242]",+ (+ is <30%),
"Cc1cccc(C)c1[C@@H]1CC[C@@H]2CN(c3nc(C(C)(C)C)ccc3C(=O)NS(=O)(=O)c3cccc(n3)N1)C(C)(C)C2 (single isomer, unassigned) [Compound 243]",+++ (+++ is >60%),< 1000 nM
"CC(C)(C)c1ccc2c(n1)N1C[C@@H](CCC(C(C)(C)C)Nc3cccc(n3)S(=O)(=O)NC2=O)CC1(C)C (single isomer, unassigned) [Compound 244]",+++ (+++ is >60%),< 1000 nM
